Measurements: patent US20200207989A1, “FLUORESCENT PROBE FOR ALDH3A1 DETECTION” (The University of Tokyo, priority 2016, published 2020)

Columns and labels:
ALDH3A1 = target: T1, ALDH3A1 (Homo sapiens, UniProt P30838); assay: Reactivity of probes to recombinant ALDH3A1 (UPLC/MS/MS); format: biochemical; conditions: 10-100 nM ALDH, 10-80 μM compound, Tris buffer pH 7.5, 30 minutes at 37° C., ◯/X not defined by a legend
T1 construct: purchased
T1 sequence (P30838 1-453): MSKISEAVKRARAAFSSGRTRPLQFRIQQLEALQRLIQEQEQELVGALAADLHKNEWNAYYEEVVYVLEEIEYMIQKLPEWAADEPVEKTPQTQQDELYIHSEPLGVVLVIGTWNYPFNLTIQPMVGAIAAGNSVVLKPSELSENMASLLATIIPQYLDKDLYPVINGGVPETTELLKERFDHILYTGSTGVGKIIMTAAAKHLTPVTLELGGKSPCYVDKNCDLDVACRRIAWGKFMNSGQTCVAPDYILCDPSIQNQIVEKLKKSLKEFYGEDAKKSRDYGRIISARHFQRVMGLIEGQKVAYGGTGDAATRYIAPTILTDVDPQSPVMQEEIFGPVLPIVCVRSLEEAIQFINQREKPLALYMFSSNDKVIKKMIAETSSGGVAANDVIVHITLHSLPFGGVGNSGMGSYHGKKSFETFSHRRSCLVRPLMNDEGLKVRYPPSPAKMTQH
Description: (§1) Human recombinant ALDH1A1/1A3/3A1 was purchased, and 100 mM of KCL, 2 mM of DTT, 1 mM of NAD(P), 10-100 nM of each ALDH, and 10-80 μM of each compound were mixed in Tris buffer (100 mM, pH 7.5), reacted for 30 minutes at 37° C., an equal amount of acetonitrile added, and the reaction stopped. The reaction solution was analyzed by UPLC/MS/MS (Waters). The UPCL chromatogram was carried out over five minutes at a flow rate of 800 μL/min by a linear gradient from 5% acetonitrile 0.01 M ammonium formate/water to 95% acetonitrile 0.01 M ammonium formate/water.

OE21 cell line = assay: Cell imaging of OE21 cells against CB7 negative control; format: cell-based; conditions: probe 5: 40 μM, 90 minutes at 37° C., CB7 10 μM control
Description: 40 μM of probe 5 was added to culture medium (RPMI 1640, 10% FBS, 15 mM HEPES, phenol red-free). After culturing for 90 minutes at 37° C., the cells were washed using a chilled medium and examined under a confocal microscope. A sample with a specific ALDH3A1 inhibitor (1-[(4-fluorophenyl)sulfonyl]-2-methyl-1H-benzimidazole, CB7, 10 μM) added served as a negative control. Excitation was provided by a 488 nm laser, and observation was carried out at wavelengths of […] in detection.

ALDH1A3 [1] = target: T2, ALDH1A3 (Homo sapiens, UniProt P47895); assay: Kinetic characteristics (Michaelis-Menten Km, Kcat) with ALDH1A3; format: biochemical; conditions: five minutes at 37° C., Tris buffer pH 7.5
T2 construct: purchased
T2 sequence (P47895 1-512): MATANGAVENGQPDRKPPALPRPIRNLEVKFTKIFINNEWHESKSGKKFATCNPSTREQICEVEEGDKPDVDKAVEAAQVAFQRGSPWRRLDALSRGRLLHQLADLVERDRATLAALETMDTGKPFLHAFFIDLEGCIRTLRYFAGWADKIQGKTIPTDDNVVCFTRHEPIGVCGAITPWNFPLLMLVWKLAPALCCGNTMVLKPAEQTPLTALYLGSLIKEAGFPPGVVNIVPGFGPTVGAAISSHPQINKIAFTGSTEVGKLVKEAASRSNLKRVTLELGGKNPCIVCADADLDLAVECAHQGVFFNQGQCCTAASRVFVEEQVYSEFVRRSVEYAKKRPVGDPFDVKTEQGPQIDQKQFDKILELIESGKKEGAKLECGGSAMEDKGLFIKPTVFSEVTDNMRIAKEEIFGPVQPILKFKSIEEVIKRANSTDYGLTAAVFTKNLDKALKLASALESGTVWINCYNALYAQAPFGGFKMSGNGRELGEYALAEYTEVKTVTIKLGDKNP
Description: as §1, with “formate/water. An aldehyde-form and carboxylic acid-form probe were detected by the absorbance at a wavelength of 504 nm, and m/z of the MS spectrum at each peak was confirmed to agree with the expected m/z.” for “formate/water.”
For the reaction, 100 mM of KCL, 2 mM of DTT, 1 mM of NAD(P), and five to six concentrations within the range of 10-100 nM of each ALDH and 0.1-80 μM of each probe were selected, mixed in Tris buffer (100 mM, pH 7.5), and reacted for five minutes at 37° C.; an equal amount of acetonitrile was added, and the reaction was stopped. Detection of the aldehyde-form/carboxylic acid-form probes was carried out using the same method as described above by UPLC/MS/MS. Km and Kcat were calculated by fitting the reaction rate at each probe concentration obtained to the Michaelis-Menten equation. A Kaleida Graph ver. 4.1 (Hulinks, Inc.) was used in fitting.

ALDH1A3 [2] = target: T2, ALDH1A3; assay: Reactivity of probes to recombinant ALDH1A3 (UPLC/MS/MS); format: biochemical; conditions: 10-100 nM ALDH, 10-80 μM compound, Tris buffer pH 7.5, 30 minutes at 37° C., ◯/X not defined by a legend
Description: as §1

Substance: N-(4-formylbenzyl)-3-(1,3-dimethyl-4,4-difluoro-4-bora-3a,4a-diaza-s-indacen-5-yl)-propionamide [Probe 1]
- Reactivity to ALDH3A1 (ALDH3A1): ◯
- Reactivity to ALDH3A1 (ALDH3A1; listed as Compound 1): reacted with all three of the isoforms tested
- Brightness of cells in imaging compared to negative control (CB7) (OE21 cell line): no evident difference in brightness could be found in comparison to the negative control
- Kcat ALDH1A3 (ALDH1A3 [1]): 0.029 ± 0.0015 s⁻¹
- Km (ALDH1A3 [1]): 1.64 ± 0.49 µM
- Reactivity to ALDH1A3 (ALDH1A3 [2]): ◯
- Reactivity to ALDH1A3 (ALDH1A3 [2]; listed as Compound 1): reacted with all three of the isoforms tested
